Experimental data as given in the NIST ThermoML archive (doi:10.1021/acs.jced.8b00854).

Key:
[1] = xn = mol fraction of the nth substance listed; settings: 100 kPa, Liquid, Vibrating tube method
[2] = refractive index (Na D-line) (dimensionless); xn = mol fraction of the nth substance listed; settings: 100 kPa, Liquid, Standard Abbe refractometry

CCCCn1cc[n+](C)c1.O=S(=O)([O-])C(F)(F)F [1-butyl-3-methylimidazolium trifluoromethanesulfonate] + O
Settings | mass density, [1] [kg/m3] | refractive index, [2]
293.15 K, x1 = 0.1001 | 1176.55 | 1.396
293.15 K, x1 = 0.2003 | 1227.39 | 1.4145
293.15 K, x1 = 0.3007 | 1251.78 | 1.421
293.15 K, x1 = 0.4003 | 1266.32 | 1.4265
293.15 K, x1 = 0.5001 | 1275.87 | 1.4301
293.15 K, x1 = 0.5998 | 1282.43 | 1.432
293.15 K, x1 = 0.6995 | 1287.53 | 1.434
293.15 K, x1 = 0.8017 | 1291.5 | 1.4355
293.15 K, x1 = 0.8993 | 1294.38 | 1.4365
303.15 K, x1 = 0.1001 | 1169.14 | 1.3945
303.15 K, x1 = 0.2003 | 1219.44 | 1.411
303.15 K, x1 = 0.3007 | 1243.64 | 1.4195
303.15 K, x1 = 0.4003 | 1258.57 | 1.4245
303.15 K, x1 = 0.5001 | 1267.92 | 1.428
303.15 K, x1 = 0.5998 | 1274.38 | 1.4305
303.15 K, x1 = 0.6995 | 1279.4 | 1.4315
303.15 K, x1 = 0.8017 | 1283.28 | 1.4335
303.15 K, x1 = 0.8993 | 1286.22 | 1.4345
313.15 K, x1 = 0.1001 | 1161.07 | 1.3925
313.15 K, x1 = 0.2003 | 1210.91 | 1.4095
313.15 K, x1 = 0.3007 | 1235.41 | 1.418
313.15 K, x1 = 0.4003 | 1250.38 | 1.423
313.15 K, x1 = 0.5001 | 1259.88 | 1.426
313.15 K, x1 = 0.5998 | 1266.41 | 1.4285
313.15 K, x1 = 0.6995 | 1271.39 | 1.43
313.15 K, x1 = 0.8017 | 1275.29 | 1.431
313.15 K, x1 = 0.8993 | 1278.29 | 1.4325
323.15 K, x1 = 0.1001 | 1153.14 | 1.3915
323.15 K, x1 = 0.2003 | 1201.99 | 1.409
323.15 K, x1 = 0.3007 | 1226.91 | 1.4175
323.15 K, x1 = 0.4003 | 1241.75 | 1.421
323.15 K, x1 = 0.5001 | 1251.81 | 1.4245
323.15 K, x1 = 0.5998 | 1258.46 | 1.4255
323.15 K, x1 = 0.6995 | 1263.41 | 1.4275
323.15 K, x1 = 0.8017 | 1267.34 | 1.429
323.15 K, x1 = 0.8993 | 1270.34 | 1.4305
333.15 K, x1 = 0.1001 | 1143.31 | 1.3905
333.15 K, x1 = 0.2003 | 1193.54 | 1.408
333.15 K, x1 = 0.3007 | 1218.41 | 1.4155
333.15 K, x1 = 0.4003 | 1233.39 | 1.42
333.15 K, x1 = 0.5001 | 1243.49 | 1.422
333.15 K, x1 = 0.5998 | 1250.25 | 1.424
333.15 K, x1 = 0.6995 | 1255.51 | 1.4255
333.15 K, x1 = 0.8017 | 1259.46 | 1.427
333.15 K, x1 = 0.8993 | 1262.47 | 1.428
343.15 K, x1 = 0.1001 | 1133.11 | 1.389
343.15 K, x1 = 0.2003 | 1184.05 | 1.405
343.15 K, x1 = 0.3007 | 1209.18 | 1.415
343.15 K, x1 = 0.4003 | 1224.41 | 1.4185
343.15 K, x1 = 0.5001 | 1234.79 | 1.4215
343.15 K, x1 = 0.5998 | 1241.97 | 1.423
343.15 K, x1 = 0.6995 | 1247.23 | 1.4235
343.15 K, x1 = 0.8017 | 1251.33 | 1.4255
343.15 K, x1 = 0.8993 | 1254.45 | 1.4265

CCn1cc[n+](C)c1.F[B-](F)(F)F [1-ethyl-3-methylimidazolium tetrafluoroborate] + O
Settings | mass density, [1] [kg/m3] | refractive index, [2]
293.15 K, x1 = 0.1001 | 1135.98 | 1.369
293.15 K, x1 = 0.2002 | 1190.68 | 1.3825
293.15 K, x1 = 0.3004 | 1219.59 | 1.3915
293.15 K, x1 = 0.4003 | 1237.8 | 1.398
293.15 K, x1 = 0.5009 | 1251.03 | 1.401
293.15 K, x1 = 0.5999 | 1261.19 | 1.4045
293.15 K, x1 = 0.7002 | 1269.24 | 1.4065
293.15 K, x1 = 0.8004 | 1275.23 | 1.4085
293.15 K, x1 = 0.9011 | 1279.57 | 1.4105
303.15 K, x1 = 0.1001 | 1129.7 | 1.367
303.15 K, x1 = 0.2002 | 1183.7 | 1.381
303.15 K, x1 = 0.3004 | 1212.47 | 1.3895
303.15 K, x1 = 0.4003 | 1230.6 | 1.3955
303.15 K, x1 = 0.5009 | 1243.72 | 1.3995
303.15 K, x1 = 0.5999 | 1253.76 | 1.402
303.15 K, x1 = 0.7002 | 1261.71 | 1.4045
303.15 K, x1 = 0.8004 | 1267.64 | 1.407
303.15 K, x1 = 0.9011 | 1271.96 | 1.408
313.15 K, x1 = 0.1001 | 1123.34 | 1.3655
313.15 K, x1 = 0.2002 | 1176.44 | 1.379
313.15 K, x1 = 0.3004 | 1204.95 | 1.3875
313.15 K, x1 = 0.4003 | 1223.03 | 1.3935
313.15 K, x1 = 0.5009 | 1236.17 | 1.3975
313.15 K, x1 = 0.5999 | 1246.23 | 1.4005
313.15 K, x1 = 0.7002 | 1254.19 | 1.4025
313.15 K, x1 = 0.8004 | 1260.1 | 1.405
313.15 K, x1 = 0.9011 | 1264.39 | 1.4065
323.15 K, x1 = 0.1001 | 1116.34 | 1.364
323.15 K, x1 = 0.2002 | 1169.01 | 1.377
323.15 K, x1 = 0.3004 | 1197.41 | 1.3875
323.15 K, x1 = 0.4003 | 1215.41 | 1.392
323.15 K, x1 = 0.5009 | 1228.52 | 1.3965
323.15 K, x1 = 0.5999 | 1238.61 | 1.399
323.15 K, x1 = 0.7002 | 1246.64 | 1.401
323.15 K, x1 = 0.8004 | 1252.61 | 1.4025
323.15 K, x1 = 0.9011 | 1256.9 | 1.4045
333.15 K, x1 = 0.1001 | 1110.02 | 1.362
333.15 K, x1 = 0.2002 | 1161.89 | 1.376
333.15 K, x1 = 0.3004 | 1190.09 | 1.385
333.15 K, x1 = 0.4003 | 1208.03 | 1.391
333.15 K, x1 = 0.5009 | 1221.09 | 1.395
333.15 K, x1 = 0.5999 | 1231.14 | 1.398
333.15 K, x1 = 0.7002 | 1239.11 | 1.399
333.15 K, x1 = 0.8004 | 1245.05 | 1.401
333.15 K, x1 = 0.9011 | 1249.32 | 1.4025
343.15 K, x1 = 0.1001 | 1101.5 | 1.3615
343.15 K, x1 = 0.2002 | 1153.47 | 1.376
343.15 K, x1 = 0.3004 | 1181.98 | 1.385
343.15 K, x1 = 0.4003 | 1200.26 | 1.39
343.15 K, x1 = 0.5009 | 1213.58 | 1.3935
343.15 K, x1 = 0.5999 | 1223.61 | 1.397
343.15 K, x1 = 0.7002 | 1231.58 | 1.3985
343.15 K, x1 = 0.8004 | 1237.51 | 1.3995
343.15 K, x1 = 0.9011 | 1241.76 | 1.401
